Measured values taken from ChEMBL document CHEMBL5036374, “2-Oxooxazolidine-5-carboxamides as Nav1.8 Inhibitors for Treating Pain Disorders, Cough Disorders, and Acute and Chronic Itch Disorders” (ACS Med Chem Lett, 2022).

Assay: Inhibition of human Nav1.8 expressed in HEK293 cells assessed as sodium current flow at holding potential of -90mV by Whole cell-automated patch clamp assay
Type: cell-based

| SMILES | IC50 [pM] |
| --- | --- |
| O=C1NC[C@@H](C(=O)NC(c2ccc(OC(F)(F)F)c(Cl)c2)c2cnn(C(F)(F)F)c2)O1 (stereo partly specified) | 1200 |
| O=C1NC[C@@H](C(=O)NC(c2ccc(Cl)cc2)c2ccc(F)c(Cl)c2)O1 (stereo partly specified) | 900 |
| O=C1NC[C@@H](C(=O)NC(c2ccc(F)c(Cl)c2)c2ccc(F)c(Cl)c2)O1 | 700 |

These reach a lower IC50. Values come first.

| IC50 [pM] | SMILES |
| --- | --- |
| 600 | O=C1NC[C@@H](C(=O)NC(c2ccc(Cl)cc2)c2ccc(Cl)c(C(F)(F)F)n2)O1 (stereo partly specified) |
| 600 | Cc1cc(C(NC(=O)[C@@H]2CNC(=O)O2)c2ccc(Cl)cc2)ccc1Cl (stereo partly specified) |
| 400 | O=C1NC[C@@H](C(=O)NC(c2ccc(Cl)cc2)c2ccc(Cl)c(C(F)(F)F)c2)O1 (stereo partly specified) |
